± gives the standard deviation of the averaged measurements.
Legend:
Test in all cases: CTG-3D luminescence at 96 h relative to day-0 seeding control (ratio to day 0); higher = more growth / less cytotoxicity; PDxO 3D drug screen (set 2), 96 h, CTG-3D normalised to day-0 seeding control.
HCI-016 = test system: HCI-016 (organoid from a triple-negative breast cancer xenograft)
HCI-011.E2 = test system: HCI-011.E2 (organoid from an ER-positive breast cancer xenograft)
HCI-002 = test system: HCI-002 (organoid from a triple-negative breast cancer xenograft)
HCI-005.E2 = test system: HCI-005.E2 (organoid from a breast cancer xenograft with a HER2-positive history)
HCI-024 = test system: HCI-024 (organoid from a breast cancer xenograft)
HCI-003.E2 = test system: HCI-003.E2 (organoid from an ER-positive breast cancer xenograft)

CC(C)n1nc(-c2ccc3oc(N)nc3c2)c2c(N)ncnc21 [sapanisertib]
CTG-3D luminescence at 96 h
Conditions | 12.5 pM | 0.00025 µM | 0.005 µM | 0.1 µM | 1 µM | 10 µM | 100 µM | 625 fM
HCI-002, days in culture: 127 | 2.42 | 2.94 | 2.62 | 1.76 | 0.875 | 0.742 | 0.27 | 3.04
HCI-002, days in culture: 155 | 5.75 | 5.31 | 5.49 | 2.38 | 1.32 | 0.875 | 0.163 | 4.67
HCI-002, days in culture: 168 | 3.37 | 3.2 | 3.78 | 1.61 | 0.882 | 0.787 | 0.155 | 4.04
HCI-011.E2, days in culture: 74 | 2.73 | 2.43 | 1.98 | 0.488 | 0.142 | 0.167 | 0.138 | 2.6
HCI-016, days in culture: 305 | 2.57 | 3.24 | 2.48 | 1.62 | 0.527 | 0.566 | 0.455 | 3.26
HCI-016, days in culture: 327 | 1.38 | 1.23 | 1.37 | 0.784 | 0.464 | 0.679 | 0.258 | 1.7
HCI-016, days in culture: 341 | 2.37 | 1.72 | 2.04 | 1.14 | 0.566 | 0.673 | 0.378 | 2.96
HCI-016, days in culture: 397 | 1.83 | 2.36 | 1.47 | 1.2 | 0.701 | 0.688 | 0.324 | 2.37
HCI-024, days in culture: 202 | 1.13 | 0.881 | 0.616 | 0.616 | 0.515 | 0.634 | 0.155 | 1.14
HCI-024, days in culture: 231 | 1.11 | 1.3 | 1.01 | 0.69 | 0.589 | 0.241 | 0.0656 | 0.868
HCI-024, days in culture: 254 | 2.43 | 1.09 | 1.25 | 1.1 | 0.518 | 0.541 | 0.118 | 1.6

CTG-3D luminescence at 96 h
Conditions | 12.5 pM | 0.00025 µM | 0.005 µM | 0.1 µM | 1 µM | 10 µM | 100 µM | 625 fM
HCI-003.E2 | 2.44 ± 0.35 | 2.37 ± 0.23 | 2.1 ± 0.75 | 0.144 ± 0.073 | 0.0411 ± 0.026 | 0.0196 ± 0.0061 | 0.00904 ± 0.0012 | 2.87 ± 0.73
HCI-005.E2 | 1.96 ± 0.49 | 2.23 ± 0.41 | 2.42 ± 0.13 | 1.23 ± 0.85 | 0.685 ± 0.28 | 0.506 ± 0.066 | 0.0873 ± 0.017 | 1.98 ± 0.6
HCI-011.E2 | 1.55 ± 0.24 | 1.65 ± 0.35 | 0.974 ± 0.011 | 0.413 ± 0.1 | 0.187 ± 0.05 | 0.228 ± 0.036 | 0.277 ± 0.05 | 1.96 ± 0.3
